Laboratory results as given in patent publication US20240293405A1, “(1H-PYRROLO[2,3-B]PYRIDIN-1-YL)PYRIMIDIN-2-YL-AMINO-PHENYL-ACRYLAMIDE INHIBITORS OF EGFR FOR USE IN THE TREATMENT OF BRAIN TUMORS” (Dana-Farber Cancer Institute, Inc., priority 2021, published 2024).
Several values for one entry are separate records, joined by “and”; a condition that tells them apart may be missing. Equal entries are not always repeated. Entries after “also recorded” stand apart in the source; their conditions may differ. Where two headings read alike, the source gives them in different places.

Experiments:
[1] = tested on: PC9GR4 cells (Ex19del/T790M); settings: PC9GR4 cell line; Wang 2020; read-out: IC50, growth inhibition; cited from earlier work
[2] = Plasma, brain and lung levels after 7 days oral dosing; format: in vivo, Sprague Dawley Rats; settings: Sprague Dawley, rat, 24 hrs after last dosing
[3] = Pharmacokinetics in rats (IV, PO); format: in vivo, rat; settings: for bioavailability: independent of dose
Description: Exposure was generally dose proportional.

CPEvIII GBM = assay: Intracranial orthotopic CPEvIII allograft in mice; format: in vivo, mouse
Description: Cells (100,000 cells resuspended in 1 μl PBS) were intracranially injected into the right striatum (0 mm anterior, 2 mm lateral, and 2.5 mm ventral to bregma) of 8-10 week-old ICR-SCID mice. Animals were monitored daily for development of neurological defects.
Neural stem cells (NSCs) from E14.5 embryonic mice (Cdkn2a-null; Ptenf/f) striata were isolated and cultured as previously described (Rietze, R. L., and Reynolds, B. A. (2006). Methods in enzymology 419, 3-23). NSCs were infected twice with adenovirus expressing Cre recombinase (AdCre; MOI50) (University of Iowa) to knock out floxed Pten. Cells were then transduced with retrovirus expressing EGFRvIII (pBabe-puro-EGFRvIII) (from Dr. Charles Stiles, DFCI) and selected with 1 μg/ml puromycin. The resulting cells (Cdkn2anull; Ptennull; EGFRvIII, denominated CPEvIII) can form a glioma after grafted into the mouse brain. Tumors were then isolated and mechanically dissociated for expansion in vitro and in vivo.
In GBM, EGFR mutations frequently coexist with CDKN2A deletion and PTEN deficiency (Brennan, C. W., et al. (2013). Cell 155, 462-477; Cancer Genome Atlas Research, N. (2008). Nature 455, 1061-1068). A syngeneic genetically engineered mouse (GEM) model of GBM driven by Cdkn2a and Pten double deletion concomitant with EGFRvIII expression (termed CPEvIII) has been generated. […]

[4] = Cardiovascular function (telemetry); format: in vivo, dog
Description: This arrythmia was not associated with maximum plasma concentration (Cmax) or Tmax of either parent or metabolite. No definitive link to the test article could be identified. Given the unexplained reversible arrythmia in this high-dose (100 mg/kg) telemetry dog, routine electrocardiogram (ECG) monitoring in Phase 1 is recommended.

[5] = tested on: NCI-H1975 cells (EGFR L858R/T790M mutation); assay: Cell viability assay, NCI-H1975 (CellTiter-Glo); format: cell-based; settings: Homo sapiens; NCI-H1975, 72 hours; read-out: IC50, cell viability
Description: (§1) CellTier-Glo (Promega) assay kit (https://www.promega.com/resources/protocols/technical-bulletins/0/celltiter-glo-luminescentcell-viability-assay-protocol/) was used here.

hERG = hERG (Homo sapiens, UniProt Q12809); assay: hERG assay (HEK cells); format: cell-based
Description: Compound 1 and/or Compound 2 (active/major metabolite) were evaluated for off-target activity in a large panel of receptors and ion channels, including a human ether-i-go-go-related gene (hERG) assay. Compound 1 was assessed comprehensively in Good Laboratory Practice (GLP) safety pharmacology studies, including studies of cardiovascular, respiratory and central nervous system function.

BT333 cells = assay: Cell viability, patient-derived GBM line BT333; settings: Homo sapiens, 72 h
Description: Primary human glioblastoma lines BT112, BT179 and BT333 were maintained in NeuroCult proliferation medium (human) (StemCell Technologies) with 20 ng/ml EGF, 10 ng/ml FGF and 0.0002% Heparin.

CYP3A4/3A5 = assay: CYP phenotyping, human liver microsomes; format: in vitro ADME
Description: Metabolism, inhibition and induction were not observed with other CYPs. Potential DDI interactions exist with drugs that are inhibitors of CYP3A4-T or those metabolized by CYP3A4/3A5; these DDI risks will be better defined once there are human pharmacokinetics (PK) data.

293-EGFRvIII cells = assay: Cell viability of 293-EGFRvIII cells (CellTiter-Glo); format: cell-based, human; settings: for IC50: Homo sapiens, read-out: IC50, viability of 293-EGFRvIII cells
Description: Cells were seeded in 96-well plates at a density of 1,000 cells per well and treated with two-fold serial dilutions of compounds with a starting concentration of 20 μM. Cell viability was assessed after three days of treatment by CellTiter-Glo (Promega). Curve fitting analysis and IC50 value determination were performed using GraphPad Prism 8.

EGFR(L861Q) = EGFR(L861Q) (Homo sapiens, UniProt P00533, L861Q); assay: Kinase binding constant (Kd)
Description: EGFR amplifications and/or mutations are common in GBM, estimated to occur in over 50% of patients.

EGFRvIII = EGFRvIII (Homo sapiens, UniProt P00533, DELINS30-297G); assay: EGFRvIII phosphorylation in 293-EGFRvIII cells (western blot); format: cell-based; parameters: expressed in transfected cells; settings: 6 hours, read-out: IC50 on EGFRvIII phosphorylation (pEGFRvIII1068)
[6] = tested on: PC-9 cells (EGFR exon 19 deletion); assay: Cell viability assay, PC-9 (CellTiter-Glo); format: cell-based; settings: Homo sapiens, PC-9; read-out: IC50, cell viability
Description: as §1

[7] = Brain and plasma exposure after single oral dose; format: in vivo, Sprague Dawley rats; settings: Compound 1 30 mg/kg PO, 30 mg/kg; for concentration at 7 h / Kp at 7 h / concentration at 3 h: Sprague Dawley, rat, po; for Kp at 7 h: read-out: Brain/Plasma (ratios)

Sequence of hERG (Q12809 whole entry): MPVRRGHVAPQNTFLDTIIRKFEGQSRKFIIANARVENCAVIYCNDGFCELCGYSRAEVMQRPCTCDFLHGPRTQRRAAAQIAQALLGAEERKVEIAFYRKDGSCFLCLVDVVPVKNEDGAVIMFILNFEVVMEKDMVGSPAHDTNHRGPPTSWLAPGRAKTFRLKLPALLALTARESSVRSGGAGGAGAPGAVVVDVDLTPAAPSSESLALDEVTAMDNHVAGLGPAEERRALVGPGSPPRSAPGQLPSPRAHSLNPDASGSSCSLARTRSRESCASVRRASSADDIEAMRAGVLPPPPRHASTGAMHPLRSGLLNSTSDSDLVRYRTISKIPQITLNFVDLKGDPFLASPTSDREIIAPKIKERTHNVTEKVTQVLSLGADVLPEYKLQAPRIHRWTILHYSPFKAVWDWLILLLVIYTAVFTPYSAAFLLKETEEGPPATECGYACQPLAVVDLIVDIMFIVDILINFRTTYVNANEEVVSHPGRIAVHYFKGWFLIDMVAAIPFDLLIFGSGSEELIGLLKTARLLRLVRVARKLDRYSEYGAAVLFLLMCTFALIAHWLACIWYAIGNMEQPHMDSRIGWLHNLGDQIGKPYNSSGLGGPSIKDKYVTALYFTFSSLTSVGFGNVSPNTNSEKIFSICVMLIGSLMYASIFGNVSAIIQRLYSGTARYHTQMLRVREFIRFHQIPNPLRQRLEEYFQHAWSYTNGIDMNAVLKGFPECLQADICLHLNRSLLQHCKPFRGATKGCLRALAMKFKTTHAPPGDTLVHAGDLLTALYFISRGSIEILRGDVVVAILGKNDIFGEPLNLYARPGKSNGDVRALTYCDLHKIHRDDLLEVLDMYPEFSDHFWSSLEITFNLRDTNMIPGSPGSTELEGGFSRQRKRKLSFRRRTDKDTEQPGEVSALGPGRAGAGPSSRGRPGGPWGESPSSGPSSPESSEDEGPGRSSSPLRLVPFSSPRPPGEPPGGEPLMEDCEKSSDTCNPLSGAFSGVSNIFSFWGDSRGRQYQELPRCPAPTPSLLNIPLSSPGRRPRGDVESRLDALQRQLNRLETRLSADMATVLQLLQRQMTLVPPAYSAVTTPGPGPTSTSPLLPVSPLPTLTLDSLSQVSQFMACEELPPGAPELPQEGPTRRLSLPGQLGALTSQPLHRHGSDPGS
Sequence of EGFRvIII (P00533 with tags, fused parts or gaps DELINS30-297G): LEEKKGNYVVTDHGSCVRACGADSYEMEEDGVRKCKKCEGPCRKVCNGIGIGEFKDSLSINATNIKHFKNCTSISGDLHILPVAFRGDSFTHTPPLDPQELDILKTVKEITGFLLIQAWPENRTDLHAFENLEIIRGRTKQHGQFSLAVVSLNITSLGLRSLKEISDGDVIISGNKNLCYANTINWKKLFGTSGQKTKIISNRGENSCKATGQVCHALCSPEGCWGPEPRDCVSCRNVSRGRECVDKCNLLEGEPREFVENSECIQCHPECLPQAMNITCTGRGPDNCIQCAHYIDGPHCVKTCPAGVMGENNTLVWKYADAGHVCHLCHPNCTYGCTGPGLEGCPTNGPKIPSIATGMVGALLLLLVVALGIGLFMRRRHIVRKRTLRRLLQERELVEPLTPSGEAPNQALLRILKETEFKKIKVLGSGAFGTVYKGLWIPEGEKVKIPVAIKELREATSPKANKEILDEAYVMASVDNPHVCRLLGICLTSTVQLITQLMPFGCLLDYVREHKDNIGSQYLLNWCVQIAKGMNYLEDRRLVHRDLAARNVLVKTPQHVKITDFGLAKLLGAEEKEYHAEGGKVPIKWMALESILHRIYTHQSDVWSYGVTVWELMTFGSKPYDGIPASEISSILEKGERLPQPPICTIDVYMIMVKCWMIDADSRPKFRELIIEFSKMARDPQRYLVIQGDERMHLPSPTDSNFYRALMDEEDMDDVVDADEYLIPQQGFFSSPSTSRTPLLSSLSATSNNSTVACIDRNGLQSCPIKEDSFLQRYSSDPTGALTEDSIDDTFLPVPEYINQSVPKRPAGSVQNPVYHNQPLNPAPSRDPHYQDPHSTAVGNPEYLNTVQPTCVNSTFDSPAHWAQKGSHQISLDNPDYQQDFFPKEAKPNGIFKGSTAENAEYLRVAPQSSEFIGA
Sequence of EGFR(L861Q) (P00533 25-1210 L861Q): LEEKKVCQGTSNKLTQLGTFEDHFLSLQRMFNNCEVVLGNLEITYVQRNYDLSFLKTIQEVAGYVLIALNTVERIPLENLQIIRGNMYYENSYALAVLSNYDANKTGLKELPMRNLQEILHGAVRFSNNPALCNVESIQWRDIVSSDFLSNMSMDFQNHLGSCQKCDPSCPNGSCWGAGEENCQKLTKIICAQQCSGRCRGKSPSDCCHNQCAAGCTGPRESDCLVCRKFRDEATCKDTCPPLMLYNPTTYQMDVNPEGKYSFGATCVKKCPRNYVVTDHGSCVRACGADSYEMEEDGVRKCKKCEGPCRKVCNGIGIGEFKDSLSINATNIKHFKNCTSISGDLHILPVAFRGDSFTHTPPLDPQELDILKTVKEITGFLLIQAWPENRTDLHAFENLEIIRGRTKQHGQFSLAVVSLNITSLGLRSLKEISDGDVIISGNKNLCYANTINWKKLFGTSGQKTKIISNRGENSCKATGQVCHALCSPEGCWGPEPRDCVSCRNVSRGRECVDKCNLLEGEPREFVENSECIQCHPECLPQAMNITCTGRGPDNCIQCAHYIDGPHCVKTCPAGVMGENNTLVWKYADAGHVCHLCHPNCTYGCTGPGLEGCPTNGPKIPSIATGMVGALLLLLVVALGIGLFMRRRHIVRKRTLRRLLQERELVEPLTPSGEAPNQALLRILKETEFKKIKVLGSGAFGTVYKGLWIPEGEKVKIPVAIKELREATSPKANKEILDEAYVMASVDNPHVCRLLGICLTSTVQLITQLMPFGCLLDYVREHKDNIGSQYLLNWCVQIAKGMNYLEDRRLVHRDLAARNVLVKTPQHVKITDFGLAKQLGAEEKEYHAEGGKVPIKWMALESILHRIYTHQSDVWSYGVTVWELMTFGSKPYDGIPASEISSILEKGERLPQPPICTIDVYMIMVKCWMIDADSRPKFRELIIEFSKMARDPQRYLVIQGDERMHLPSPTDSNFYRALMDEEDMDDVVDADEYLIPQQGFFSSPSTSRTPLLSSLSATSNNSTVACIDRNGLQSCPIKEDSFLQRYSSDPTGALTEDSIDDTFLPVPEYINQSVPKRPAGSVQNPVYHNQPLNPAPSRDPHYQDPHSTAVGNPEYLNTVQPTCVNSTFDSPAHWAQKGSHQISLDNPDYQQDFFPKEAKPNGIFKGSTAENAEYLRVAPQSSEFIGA

In the case of `C=CC(=O)Nc1cc(Nc2nccc(-n3ccc4cccnc43)n2)c(OC)cc1N(C)CCN(C)C` [Compound 1, N-(5-((4-(1H-pyrrolo[2,3-b]pyridin-1-yl)pyrimidin-2-yl)amino)-2-((2-(dimethylamino)ethyl)(methyl)amino)-4-methoxyphenyl)acrylamide], the IC50 [1] is listed as 3.66 nM, the concentration at 24 h ([2]; brain, 10 mg/kg po qd 7 days, Female, read-out: Brain) is listed as 39.8 ng/g and the concentration at 24 h ([2]; brain, 10 mg/kg po qd 7 days, Male, read-out: Brain) is listed as 14.9 ng/g. The concentration at 24 h ([2]; brain, 50 mg/kg po qd 7 days, Female, read-out: Brain) was 3770 ng/g, the concentration at 24 h ([2]; brain, 50 mg/kg po qd 7 days, Male, read-out: Brain) was 2080 ng/g and the concentration at 24 h ([2]; lung, 10 mg/kg po qd 7 days, Female, read-out: Lung) was 1220 ng/g. It also gave a concentration at 24 h ([2]; lung, 10 mg/kg po qd 7 days, Male, read-out: Lung) of 329 ng/g, a concentration at 24 h ([2]; lung, 50 mg/kg po qd 7 days, Female, read-out: Lung) of 45000 ng/g and a concentration at 24 h ([2]; lung, 50 mg/kg po qd 7 days, Male, read-out: Lung) of 9710 ng/g. For the same compound, the concentration at 24 h ([2]; plasma, 10 mg/kg po qd 7 days, Female, read-out: Plasma) was 20.8 ng/mL, the concentration at 24 h ([2]; plasma, 10 mg/kg po qd 7 days, Male, read-out: Plasma) was 10.6 ng/mL and the concentration at 24 h ([2]; plasma, 50 mg/kg po qd 7 days, Female, read-out: Plasma) was 244 ng/mL. The concentration at 24 h ([2]; plasma, 50 mg/kg po qd 7 days, Male, read-out: Plasma) was 149 ng/mL, the clearance [3] was “moderately high clearance; also recorded: moderately high-clearance; also recorded: Moderate high-clearance” and the volume of distribution [3] was “large volume of distribution”. The clearance ([3]; listed as Compound 11) was “relatively high clearance rate”, the bioavailability ([3]; rat, in vivo, po) was ~50% and the half-life ([3]; rat, plasma, Compound 2 as metabolite) was ~5 h. The Tmax ([3]; rat, plasma, po, Compound 2 as metabolite) was ~5 h, the bioavailability ([3]; rat, plasma, po) was 50% and the “body weight during treatment” value (CPEvIII GBM; 75 mg/kg QD) was “no significant loss of body weight”. The “phosphorylation levels of EGFRvIII in tumors (IHC)” value (CPEvIII GBM; tumors at end point, 75 mg/kg) was “reduced”, the “dogs with reversible ventricular conduction disturbance” value ([4]; 100 mg/kg, 10 to 24 hours after dose) was 1 of 4 and the “QTc, blood pressure and cardiac intervals” value ([4]; doses up to 100 mg/kg) was “no QTc signals; also recorded: no adverse effects on blood pressure or cardiac intervals”. For the same compound, the Cmax ([4]; plasma, dog, 100 mg/kg Compound 1 PO, M38 as metabolite, read-out: estimated single-dose Cmax) was 2620 ng/mL and 5.4 µM, the IC50 [5] was 34.4 nM and the IC50 (hERG) was 1900 nM. The “hERG IC100” value (hERG) was ~30 µM, the IC50 (BT333 cells) was 3280 nM and the “primarily metabolizing CYP” value (CYP3A4/3A5) was “CYP3A4/3A5”. For the same compound, the “fold more active than erlotinib (viability)” value (293-EGFRvIII cells; HEK293-EGFRvIII cells) was 3 fold, the “fold more active than gefitinib (viability)” value (293-EGFRvIII cells; HEK293-EGFRvIII cells) was 10 fold and the IC50 (293-EGFRvIII cells; 72 h, 3 days treatment, CellTiter-Glo) was 1480 nM. For the same compound, the IC50 (293-EGFRvIII cells; unit as printed in b643 for Compound 1) was 1480 nM, the Kd (EGFR(L861Q)) was 3.9 nM and the IC50 (EGFRvIII) was 190 nM. For the same compound, the IC50 [6] was 62.8 nM, the “Plasma Concentration” value ([7]; 3 hr, individual animal) was 181 ng/mL and 229 ng/mL and 273 ng/mL and the “Brain Tissue Concentration” value ([7]; 7 hr, individual animal) was 8280 ng/g and 5210 ng/g and 7400 ng/g. For the same compound, the “Brain/Plasma (ratios)” value ([7]; 7 hr, individual animal) was 31.2 and 26.4, the “Plasma Concentration” value ([7]; 7 hr, individual animal) was 265 ng/mL and 197 ng/mL and 275 ng/mL and the concentration at 7 h ([7]; brain, 7 hr, individual animal, read-out: Brain Tissue Concentration) was 7400 ng/g. It also gave a Kp at 7 h ([7]; brain, 7 hr, individual animal) of 26.9, a concentration at 7 h ([7]; brain, 7 hr, mean n=3, read-out: Brain Tissue Concentration) of 6960 ng/g and a Kp at 7 h ([7]; brain, 7 hr, mean n=3) of 28.3. The concentration at 3 h ([7]; plasma, 3 hr, individual animal) was 273 ng/mL, the concentration at 3 h ([7]; plasma, 3 hr, mean n=3) was 228 ng/mL and the concentration at 7 h ([7]; plasma, 7 hr, individual animal, read-out: Plasma Concentration) was 275 ng/mL. For the same compound, the concentration at 7 h ([7]; plasma, 7 hr, mean n=3, read-out: Plasma Concentration) was 246 ng/mL.
